Reference: patent US12691070B2, “Cationic lipids and preparation method thereof” (RiboX Therapeutics HK Limited, priority 2023, dated 2026)

Legend:
[1] = LNP size and polydispersity index (PDI) by dynamic light scattering; format: physicochemical; conditions: for Size: in nm (unit assumed)
Outline: (§1)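 LNPs of ionizable lipid/DSPC/cholesterol/DMG-PEG 2000 (50:10:38.5:1.5) made by microfluidic mixing of luciferase circRNA or mRNA in pH 4.5 acetate with lipids in ethanol (3:1, 12 ml/min), ionizable lipid:nucleotide 15 or 6, then dialyzed against PBS. Size, PDI (DLS) and zeta potential on Zetasizer; encapsulation by Ribogreen ± Triton X-100.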

RAW 264.7 cells [2] = assay: In vitro toxicity (CellTiter-Glo cell viability), RAW 264.7; format: cell-based;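 note: percent of untreated cells luminescence signal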
Outline: (§2)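 First, cells receive RNA-LNPs at 1 μg/mL by transfection. After 72 hours, CellTiter-Glo reagent is added per kit protocol. Luminescence is then read and converted to cell viability.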

BALB/C mice = assay: In vivo expression, whole-body luminescence (IVIS)
Procedure: 6-8 week old, female BALB/C mice were injected with 0.05 mg*kg-1 of RNA-LNPs encoding for firefly-luciferase by intravenous injection. At 6 hours post injection, animals were intraperitoneally injected with 15 mg/ml of Luciferin substrate and whole-body luminescence was determined by a bioluminescent in vivo imaging system (IVIS).

[3] = RNA encapsulation efficacy by Quant-IT Ribogreen kit; format: physicochemical; conditions: for Encapsulation Efficiency %: LNP with cirRNA (SEQ ID NO: 1); for Encapsulation Efficiency: LNP with mRNA (SEQ ID NO: 2)
Outline: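 Ribogreen fluorescence with and without Triton X-100 gave encapsulation as 100% − (intact/lysed) signal; DLS size, PDI and zeta potential measured on a Zetasizer. Particles: 50:10:38.5:1.5 lipid mix, luciferase circRNA or mRNA, lipid:nucleotide 15 or 6, microfluidic assembly at pH 4.5, PBS-dialyzed.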

[4] = LNP zeta potential (Zetasizer); format: physicochemical
Outline: as §1

Hep G2 cells [5] = assay: In vitro expression of firefly-luciferase, Hep G2; format: cell-based
Outline: (§3)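 Luminescence from cell lysates reports expression: luciferase activity was measured 72 h after transfection with 100 ng/mL RNA-LNPs encoding firefly luciferase.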

RAW 264.7 cells [6] = assay: In vitro expression of firefly-luciferase, RAW 264.7; format: cell-based
Outline: as §3

Hep G2 cells [7] = assay: In vitro toxicity (CellTiter-Glo cell viability), Hep G2; format: cell-based;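 note: percent of untreated cells luminescence signal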
Outline: as §2

[8] = cirRNA (SEQ ID NO: 1) LNPs, RAW 264.7 cells
[9] = cirRNA (SEQ ID NO: 1) LNPs, BALB/C mice
[10] = cirRNA (SEQ ID NO: 1) LNPs, firefly-luciferase luminescence, Hep G2 cells
[11] = cirRNA (SEQ ID NO: 1) LNPs, firefly-luciferase luminescence, RAW 264.7 cells
[12] = cirRNA (SEQ ID NO: 1) LNPs, Hep G2 cells
[13] = mRNA (SEQ ID NO: 2) LNP, 1 μg/mL, 72 hours post transfection
[14] = mRNA (SEQ ID NO: 2) LNP, 0.05 mg*kg-1 intravenous, 6 hours post injection
[15] = mRNA (SEQ ID NO: 2) LNP, 100 ng/mL, 72 hours post transfection, luciferase activity

| PDI ([1]; LNP with cirRNA (SEQ ID NO: 1)) | Size ([1]; LNP with cirRNA (SEQ ID NO: 1)) | Encapsulation Efficiency % [3] [%] | Zeta (mV) ([4]; LNP with cirRNA (SEQ ID NO: 1)) | PDI ([1]; LNP with mRNA (SEQ ID NO: 2)) | Size ([1]; LNP with mRNA (SEQ ID NO: 2)) | Encapsulation Efficiency [3] [%] | Zeta (mV) ([4]; LNP with mRNA (SEQ ID NO: 2)) | Structure (SMILES) | In vitro Viability RAW (RAW 264.7 cells [2]; [8]) [%] | In vivo Expression (Whole Body) (BALB/C mice; [9]) | In vitro Expression HepG2 (Hep G2 cells [5]; [10]) | In vitro Expression RAW (RAW 264.7 cells [6]; [11]) | In vitro Viability HepG2 (Hep G2 cells [7]; [12]) [%] | In vitro Viability RAW (RAW 264.7 cells [2]; [13]) [%] | In vivo Expression (Whole Body) (BALB/C mice; [14]) | In vitro Expression HepG2 (Hep G2 cells [5]; [15]) | In vitro Expression RAW (RAW 264.7 cells [6]; [15]) | In vitro Viability HepG2 (Hep G2 cells [7]; [13]) [%] |
| --- | --- | --- | --- | --- | --- | --- | --- | --- | --- | --- | --- | --- | --- | --- | --- | --- | --- | --- |
| 0.1303 | 72.69 | 92 | −2.341 | – | – | – | – | CCCCCCCCCCC(CCCCCCCC)COC(=O)CCCCCN(CCCCCC(=O)OCC(CCCCCCCC)CCCCCCCCCC)CCCOC(=O)NCc1ncc[nH]1 (stereo not shown) [Lipid 365] | 88 | 1.32E+08 | 3.17E+05 | 3.87E+04 | 109 | – | – | – | – | – |
| 0.2572 | 118.4 | 92 | −0.4163 | – | – | – | – | CCCCCCCCCCC(CCCCCCCC)COC(=O)CCCCCN(CCCCCC(=O)OCC(CCCCCCCC)CCCCCCCCCC)CCCOC(=O)NCCCN(CC)CC (stereo not shown) [Lipid 366] | 99 | 3.26E+06 | 3.39E+05 | 2.01E+04 | 84 | – | – | – | – | – |
| 0.2544 | 131.6 | 91 | 0.7313 | – | – | – | – | CCCCCCCCCCC(CCCCCCCC)COC(=O)CCCCCN(CCCCCC(=O)OCC(CCCCCCCC)CCCCCCCCCC)CCCOC(=O)NCCN1CCN(C)CC1 (stereo not shown) [Lipid 367] | 90 | 1.74E+06 | 5.88E+05 | 2.48E+04 | 85 | – | – | – | – | – |
| 0.2875 | 130.2 | 92 | 3.421 | – | – | – | – | CCCCCCCCCCC(CCCCCCCC)COC(=O)CCCCCN(CCCCCC(=O)OCC(CCCCCCCC)CCCCCCCCCC)CCCOC(=O)NCCNC(C)C (stereo not shown) [Lipid 368] | 67 | 4.18E+06 | 1.22E+06 | 1.18E+05 | 68 | – | – | – | – | – |
| 0.2663 | 118.2 | 92 | 4.685 | – | – | – | – | CCCCCCCCCCC(CCCCCCCC)COC(=O)CCCCCN(CCCCCC(=O)OCC(CCCCCCCC)CCCCCCCCCC)CCCOC(=O)NCCN1CCC1 (stereo not shown) [Lipid 372] | 57 | 1.10E+06 | 4.98E+03 | 3.30E+02 | 42 | – | – | – | – | – |
| 0.2353 | 92.65 | 92 | −3.695 | – | – | – | – | CCCCCCCCCCC(CCCCCCCC)COC(=O)CCCCCN(CCCCCC(=O)OCC(CCCCCCCC)CCCCCCCCCC)CCCOC(=O)NCCN1CCCCCC1 (stereo not shown) [Lipid 373] | 91 | 5.62E+06 | 5.98E+04 | 2.32E+04 | 63 | – | – | – | – | – |
| 0.2338 | 112.8 | 93 | 2.594 | – | – | – | – | CCCCCCCCC(CCCCCC)C(=O)OCCCCCCCCN(CCCCCCCCOC(=O)C(CCCCCC)CCCCCCCC)CCCOC(=O)NCCN1CCN(C)CC1 (stereo not shown) [Lipid 377] | 85 | 8.84E+06 | 2.55E+06 | 1.05E+05 | 71 | – | – | – | – | – |
| 0.2637 | 130.6 | 93 | 6.729 | – | – | – | – | CCCCCCCCC(CCCCCC)C(=O)OCCCCCCCCN(CCCCCCCCOC(=O)C(CCCCCC)CCCCCCCC)CCCOC(=O)NCCCN(C)C (stereo not shown) [Lipid 378] | 75 | 8.79E+06 | 3.39E+06 | 6.58E+05 | 26 | – | – | – | – | – |
| 0.1919 | 117.2 | 92 | 3.38 | – | – | – | – | CCCCCCCCC(CCCCCC)C(=O)OCCCCCCCCN(CCCCCCCCOC(=O)C(CCCCCC)CCCCCCCC)CCCOC(=O)NCCN1CCCC1 (stereo not shown) [Lipid 379] | 72 | 2.86E+07 | 1.16E+07 | 1.60E+06 | 45 | – | – | – | – | – |
| 0.2452 | 145.3 | 94 | 4.75 | – | – | – | – | CCCCCCCCC(CCCCCC)C(=O)OCCCCCCCCN(CCCCCCCCOC(=O)C(CCCCCC)CCCCCCCC)CCCOC(=O)NCCN1CCC1 (stereo not shown) [Lipid 382] | 84 | 4.22E+06 | 3.97E+05 | 5.69E+04 | 42 | – | – | – | – | – |
| 0.2423 | 135.9 | 96 | 8.213 | – | – | – | – | CCCCCCCCC(CCCCCC)C(=O)OCCCCCCCCN(CCCCCCCCOC(=O)C(CCCCCC)CCCCCCCC)CCCNCCN(C)C (stereo not shown) [Lipid 384] | 88 | 1.15E+07 | 2.57E+06 | 3.15E+05 | 81 | – | – | – | – | – |
| 0.2458 | 159 | 94 | 11.28 | – | – | – | – | CCCCCCCCC(CCCCCC)C(=O)OCCCCCCCCN(CCCCCCCCOC(=O)C(CCCCCC)CCCCCCCC)CCCNCCCN(CC)CC (stereo not shown) [Lipid 385] | 80 | 1.79E+06 | 1.31E+05 | 1.37E+04 | 74 | – | – | – | – | – |
| 0.2901 | 145.2 | 74 | 1.916 | 0.2719 | 118 | 83.95 | 10.76 | CCCCC/C=C\C/C=C\CCCCCCCCN(CCCCCCCC/C=C\C/C=C\CCCCC)CCOC(=O)CCCN(C)C [Lipid A, reference compound] | – | – | 1.90E+06 | – | – | 96 | 2.13E+08 | 3.08E+07 | 5.86E+06 | 108 |
| 0.2623 | 93.61 | 88 | 3.811 | 0.2472 | 80.28 | 86.87 | 0.02157 | CCCCC/C=C\C/C=C\CCCCCCCCN(CCCCCCCC/C=C\C/C=C\CCCCC)CCOC(=O)[C@@H](N)Cc1c[nH]cn1 [Lipid B, reference compound] | – | – | 8.71E+05 | – | – | 92 | 3.42E+08 | 4.21E+05 | 1.32E+05 | 97 |
